Assay results published in US20100120789A1, “Compound” (priority 2005, published 2010).

Tests used:
Human 11β-HSD1 [1] = biological target: T1, Human 11β-HSD1 (Homo sapiens, UniProt P28845); assay: 11β-HSD1 HEK assay (whole HEK 293 cells stably transfected with HSD11B1, SPA); assay type: cell-based; design: expressed in transfected cells; host or cells: HEK 293; settings: HEK293
Human 11β-HSD1 [2] = biological target: T1, Human 11β-HSD1; assay: 11β-HSD1 HTRF assay (human liver microsome fractions, cortisol by HTRF); assay type: biochemical; settings: 10 μM compound; human liver microsomes
Protocol: 11β-HSD1 HTRF Assay Protocol
The 11β-HSD Type 1 assay was carried out at room temperature in 96 well microtitre plates in a total volume of 40 μl. Assay buffer contained 30 mM Tris.HCl, 1 mM EDTA, pH 7.2. Inhibitor compounds were tested at varying concentrations at a final Dimethyl Sulphoxide concentration of 1%. Compounds were usually tested at 10 μM. The substrate mixture contained cortisone, NADPH and glucose-6-phosphate at final concentrations of 1 μM, 180 μM and 1 mM respectively. Assays were started by the addition of 10p1 human liver microsome fractions, 20 mg per ml protein, containing 11β-HSD Type 1, diluted 1 to 40 prior to use. Following mixing microtitre plates were shaken for 30 minutes. Reactions were stopped by the addition of 10 μl 1 mM Glyccheritinnic acid solution. Production of Cortisol was measured by Homogenous Time Resolved Fluorescence using a cortisol assay kit; Cisbio International Cortisol HTRF kit (62CORPEB), following the manufacturer's protocol.

Human 11β-HSD1 [3] = biological target: T1, Human 11β-HSD1; assay: 11β-HSD1 HEK assay (whole HEK 293 cells stably transfected with HSD11B1, SPA); assay type: cell-based; design: expressed in transfected cells; host or cells: HEK 293; settings: HEK293, read-out: % INHIBITION of Human 11 β-HSD1 at 10 μM (HEK)
Protocol: 11β-HSD1 HEK Assay Protocol (Cell Based Assay)
11β-HSD1 activity is measured in whole HEK 293 cells stably transfected with the HSD11B1 gene. Cells are incubated in 96-well microplates in the presence of tritiated substrate. Enzyme activity is determined by measuring the amount of tritated product by scintillation proximity assay (SPA). Assay plates contain internal high and low controls to allow calculation of percentage inhibition.
2. When the cells are 80% confluent the medium is removed from each well. 100 μl fresh, serum-free, medium containing ^3H-cortisone and test compound in 1% DMSO is added to each well*. Control wells are also dispensed.
3. The plate is incubated at […] for the required time period.
4. 50 μl of media is removed from each well and transferred to a microplate containing 100 μl of a pre-incubated mixture of anti-cortisol antibody and SPA bead. The mixture is incubated with gentle shaking until equilibrium is reached, before transferring to a scintillation counter to establish the enzyme activity in each sample.
10 μl of compound is dispensed into each well of a 96-well microplate in 10% DMSO at 100 μM concentration. 90 μl media containing ^3H-cortisone is added to each well. The compound/media/substrate mixture is then transferred to the assay plate containing the cells.

T1 sequence (P28845 whole entry): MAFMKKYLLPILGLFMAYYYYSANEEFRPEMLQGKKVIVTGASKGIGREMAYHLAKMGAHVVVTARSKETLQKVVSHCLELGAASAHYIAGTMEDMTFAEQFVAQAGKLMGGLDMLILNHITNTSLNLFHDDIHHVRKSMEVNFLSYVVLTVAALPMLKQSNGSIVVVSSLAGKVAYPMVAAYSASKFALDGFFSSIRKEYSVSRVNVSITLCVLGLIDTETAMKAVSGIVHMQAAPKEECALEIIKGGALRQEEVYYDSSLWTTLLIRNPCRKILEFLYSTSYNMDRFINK

inhibition at 1 µM (Human 11β-HSD1 [1]) [%] | SMILES | inhibition at 10 µM (Human 11β-HSD1 [2]) [%] | inhibition at 10 µM (Human 11β-HSD1 [3]) [%]
63 | NC(=O)c1ccc(COCC(=O)C23CC4CC(CC(C4)C2)C3)cc1 [Compound 17] |  | 
 | CCCc1ccc(S(=O)(=O)NC23CC4CC(CC(C4)C2)C3)cc1 [compound 1341] | 20 to 60 | 20 to 60
 | O=S(=O)(NC12CC3CC(CC(C3)C1)C2)c1ccc(-c2ccccc2)cc1 [compound 1344] | 20 to 60 | 20 to 60
 | CCCc1ccc(S(=O)(=O)NCC23CC4CC(CC(C4)C2)C3)cc1 [compound 1368] | > 60 | 20 to 60
 | Cc1nc2c(NC(=O)C34CC5CC(CC(C5)C3)C4)c(C)ccc2s1 [compound 1372] | 20 to 60 | 20 to 60
 | Cc1nc2c(Cl)c(NC(=O)C34CC5CC(CC(C5)C3)C4)ccc2s1 [compound 1373] | 20 to 60 | > 60
 | O=C(NCc1cccs1)C12CC3CC(CC(C3)C1)C2 [compound 1374] | > 60 | > 60
 | O=C(NCCc1cccs1)C12CC3CC(CC(C3)C1)C2 [compound 1375] | > 60 | > 60
 | Cc1nc2cc(NCC(=O)C34CC5CC(CC(C5)C3)C4)ccc2s1 [compound 1487] | > 60 | > 60
 | O=S(=O)(Cc1ccc(Cl)cc1)NC12CC3CC(CC(C3)C1)C2 [compound 1499] | 20 to 60 | < 20
 | O=S(=O)(Cc1cccc(Cl)c1)NC12CC3CC(CC(C3)C1)C2 [compound 1500] | 20 to 60 | < 20
 | O=C(CNc1ccc(Cl)cc1)C12CC3CC(CC(C3)C1)C2 [compound 1535] | > 60 | > 60
 | Cc1ccc(SCC(=O)C23CC4CC(CC(C4)C2)C3)cc1 [compound 1537] | > 60 | > 60
 | O=C(CSc1cc(Cl)ccc1Cl)C12CC3CC(CC(C3)C1)C2 [compound 1538] | > 60 | > 60
 | O=C(CS(=O)(=O)c1ccc(Cl)cc1)C12CC3CC(CC(C3)C1)C2 [compound 1539] | > 60 | 20 to 60
 | O=C(NCc1ccccn1)C12CC3CC(CC(C3)C1)C2 [compound 1540] | > 60 | 20 to 60
 | O=C(NCCc1ccccn1)C12CC3CC(CC(C3)C1)C2 [compound 1541] | > 60 | > 60
 | O=C(NCc1cccnc1)C12CC3CC(CC(C3)C1)C2 [compound 1542] | > 60 | > 60
 | O=C(NCCc1cccnc1)C12CC3CC(CC(C3)C1)C2 [compound 1543] | > 60 | < 20
 | COc1ccc(NC(=O)C23CC4CC(CC(C4)C2)C3)cn1 [compound 1544] | > 60 | 20 to 60
 | Cc1cnc(CNC(=O)C23CC4CC(CC(C4)C2)C3)cn1 [compound 1545] | > 60 | 20 to 60
 | Cc1ccc(S(=O)(=O)CC(=O)C23CC4CC(CC(C4)C2)C3)cc1 [compound 1562] | > 60 | > 60
 | O=C(C[S+]([O-])c1cc(Cl)ccc1Cl)C12CC3CC(CC(C3)C1)C2 (stereo not drawn) [compound 1563] | > 60 | > 60
 | O=C(CC12CC3CC(CC(C3)C1)C2)NCc1cccs1 [compound 1564] | > 60 | > 60
 | O=C(CC12CC3CC(CC(C3)C1)C2)NCc1ccccn1 [compound 1565] | > 60 | 20 to 60

inhibition at 1 µM (Human 11β-HSD1 [1]) [%] | SMILES | inhibition at 10 µM (Human 11β-HSD1 [2]) [%] | inhibition at 10 µM (Human 11β-HSD1 [3]) [%]
 | O=C(COc1ccc(-c2ccccc2)cc1)C12CC3CC(CC(C3)C1)C2 [compound 1567] | > 60 | > 60
 | COc1ccc(OCC(=O)C23CC4CC(CC(C4)C2)C3)cc1OC [compound 1568] | > 60 | > 60
 | CC(=O)Nc1ccc(OCC(=O)C23CC4CC(CC(C4)C2)C3)cc1 [compound 1569] | > 60 | > 60
 | O=C(CC12CC3CC(CC(C3)C1)C2)NCCc1cccs1 [compound 1570] | > 60 | > 60
 | Cc1nc2c(NC(=O)CC34CC5CC(CC(C5)C3)C4)c(C)ccc2s1 [compound 1572] | > 60 | < 20
 | O=S(=O)(NC12CC3CC(CC(C3)C1)C2)c1cccs1 [compound 1573] | > 60 | 
 | O=S(=O)(NC1C2CC3CC(C2)CC1C3)c1cccs1 (stereo not drawn) [compound 1574] | > 60 | 20 to 60
 | O=S(=O)(NCC12CC3CC(CC(C3)C1)C2)c1cccs1 [compound 1575] | > 60 | < 20
 | CN(Cc1cccs1)C(=O)C12CC3CC(CC(C3)C1)C2 [compound 1576] | > 60 | 
 | Cn1cnc(CNC(=O)C23CC4CC(CC(C4)C2)C3)c1 [compound 1577] | > 60 | > 60
 | Cn1cccc1CNC(=O)C12CC3CC(CC(C3)C1)C2 [compound 1578] | > 60 | > 60
 | O=C(NCc1ccco1)C12CC3CC(CC(C3)C1)C2 [compound 1579] | > 60 | > 60
 | O=C(NCCCn1ccnc1)C12CC3CC(CC(C3)C1)C2 [compound 1580] | 20 to 60 | 20 to 60
 | O=C(NCCc1c[nH]c2ccccc12)C12CC3CC(CC(C3)C1)C2 [compound 1581] | > 60 | > 60
 | CN1CCCC1CCNC(=O)C12CC3CC(CC(C3)C1)C2 (stereo not drawn) [compound 1597] | > 60 | < 20
 | O=C(NCCN1CCCCC1)C12CC3CC(CC(C3)C1)C2 [compound 1598] | > 60 | > 60
 | Cc1ccc(-c2noc(C34CC5CC(CC(C5)C3)C4)n2)cc1 [compound 1599] | 20 to 60 | 20 to 60
 | O=C(COc1ccc(Cl)cc1)C12CC3CC(CC(C3)C1)C2 [compound 1610] | > 60 | > 60
 | O=C(COc1cc(Cl)ccc1Cl)C12CC3CC(CC(C3)C1)C2 [compound 1618] | > 60 | > 60
 | Cc1ccc(OCC(=O)C23CC4CC(CC(C4)C2)C3)cc1 [compound 1619] | > 60 | > 60
 | O=C(CSCc1ccc(Cl)cc1)C12CC3CC(CC(C3)C1)C2 [compound 1621] | > 60 | > 60
 | O=C(COCc1ccc(Cl)cc1)C12CC3CC(CC(C3)C1)C2 [compound 1626] | > 60 | 20 to 60
 | Clc1ccc(-c2noc(C34CC5CC(CC(C5)C3)C4)n2)cc1 [compound 1627] | 20 to 60 | 
 | O=C(C[S+]([O-])Cc1ccc(Cl)cc1)C12CC3CC(CC(C3)C1)C2 (stereo not drawn) [compound 1628] | > 60 | > 60
 | O=C(CS(=O)(=O)Cc1ccc(Cl)cc1)C12CC3CC(CC(C3)C1)C2 [compound 1632] | > 60 | > 60
